Experimental data reported in PubChem BioAssay AID2060508 (Molecular Pharmacology Branch, DTP, NCI, 2025).

Tested on: 454973-116-R2-J3-PDC spheroids, viability, % test/control
Experiment: Anticancer human tumor 454973-116-R2-J3-PDC patient-derived pancreatic carcinoma cell line growth inhibition [GQUAD]
Details: spheroids with HUVEC and MSC; for IC50: curve of first compound; for viability, T/C: stronger effect = lower value
Description: DNA G-quadruplex Stabilizer Agents in Combinations in Complex Spheroids
A high-throughput screen of multi-cell type tumor spheroids was designed to identify active combinations of DNA G-quadruplex stabilizer agents and targeted small molecules. Complex spheroids include a stromal component modeled by human endothelial cells (HUVEC) and fibroblasts modeled by human mesenchymal stem cells (MSCs). The concentration ranges selected for each drug and investigational agent were based upon clinically achievable concentrations if the clinical Cmax of the agent was known.
Compounds. The drugs and investigational agents: pidnarulex (CX-5461; NSC782164), APTO-253 (NSC789042), BRACO-19 (NSC847499), peposertib (NSC802822), ceralasertib (NSC780249), elimusertib (NSC800525), camonsertib (NSC841442), AZD-1390 (NSC803789), olaparib (NSC753686), talazoparib (NSC767125), ART-558 (NSC835418), sotorasib (NSC818433), MRTX-1133 (NSC836407), SN-38 (NSC673596), topotecan (NSC609699), etoposide (NSC141540), doxorubicin (NSC123127), gemcitabine (NSC613327), 5-fluorouracil (NSC19893), paclitaxel (NSC125973), vemurafenib (NSC761431), panobinostat (NSC761190), R-306465 (JNJ-16241199; NSC773264), adavosertib (NSC754352), TP-3654 (NSC805149), carboplatin (NSC241240), KSQ-4279 (NSC840948), and staurosporine (NSC755774) were obtained from the National Cancer Institute (NCI) Developmental Therapeutics Program Chemical Repository (34). The FDA-approved anticancer drug set is available from the NCI Developmental Therapeutics Program. […] The stock solutions were prepared in dimethyl sulfoxide (DMSO, Sigma-Aldrich, St. Louis, MO, cat. D2650) at 800-fold the tested concentration and stored at -70 degrees C prior to their use. All drugs and investigational agents were tested over a range starting from a high concentration at or near the clinical Cmax and decreasing in half-log increments. If the clinical Cmax for an agent had not been determined, the highest concentration tested was 10 microM.
2.3 Cell Culture. All cells were maintained in an incubator at 37 degrees C and 5% CO2 with 95% humidity. The PDC lines were cultured according to standard operating procedures established by the NCI PDMR. All PDCs were thawed and cultured in Matrigel-coated flasks prepared with a working solution of 1X Ham's F-12 nutrient mix, without supplementation (Invitrogen, cat. 11765054), 100 U/mL penicillin-streptomycin (Invitrogen, cat. 15140122), and 2.5% Matrigel (Corning Inc., cat. 354248) for the first three passages. The 857933-349-R-J2-PDC line was cultured in 6C/Colon 1B media, which includes advanced DMEM/F-12 (Thermo Fisher Scientific, cat. 12634028), 10 mM HEPES (Thermo Fisher Scientific, cat. 15630080), 1X GlutaMAX supplement (Thermo Fisher Scientific, cat. 35050061), 0.1 mg/mL primocin (InvivoGen, cat. ant-pm-2), 10% defined fetal bovine serum, heat inactivated (HyClone Laboratories Inc., cat. SH30070.03HI), 50% L-WRN conditioned media (ATCC, cat. CRL-3276), 1.25 mM N-Acetyl-L-cysteine (Sigma-Aldrich, cat. A9165), 10 mM nicotinamide (Sigma-Aldrich, cat. N0636), 1X B-27 supplement (Thermo Fisher Scientific, cat. 17504044), 1X N-2 supplement (Thermo Fisher Scientific, cat. 17502048), 10 microM Y-27632 dihydrochloride (Tocris Bioscience, cat. 1254), and 50 ng/mL human EGF recombinant protein (Thermo Fisher Scientific, cat. PHG0311). The 485176-168-R4-J1-PDC line was cultured in Panc media, which includes all 6C/Colon 1B media components plus 100 ng/mL human FGF-10 (Thermo Fisher Scientific, cat. 100-26), 500 nM SB-431542 (Selleckchem, cat. S1067), and gastrin (Tocris, cat. 3006).
[…]

[1] = second compound 0.0316 µM, first compound 0.0316 µM
[2] = second compound 0.0316 µM, first compound 0.1 µM
[3] = second compound 0.0316 µM, first compound 0.316 µM
[4] = second compound 0.0316 µM, first compound 1 µM
[5] = second compound 0.0316 µM, first compound 3.16 µM
[6] = second compound 0.0316 µM, first compound 10 µM
[7] = second compound 0.1 µM, first compound 0.0316 µM
[8] = second compound 0.1 µM, first compound 0.1 µM
[9] = second compound 0.1 µM, first compound 0.316 µM
[10] = second compound 0.1 µM, first compound 1 µM
[11] = second compound 0.1 µM, first compound 3.16 µM
[12] = second compound 0.1 µM, first compound 10 µM
[13] = second compound 0.316 µM, first compound 0.0316 µM
[14] = second compound 0.316 µM, first compound 0.1 µM
[15] = second compound 0.316 µM, first compound 0.316 µM
[16] = second compound 0.316 µM, first compound 1 µM
[17] = second compound 0.316 µM, first compound 3.16 µM
[18] = second compound 0.316 µM, first compound 10 µM
[19] = second compound 1 µM, first compound 0.0316 µM
[20] = second compound 1 µM, first compound 0.1 µM
[21] = second compound 1 µM, first compound 0.316 µM
[22] = second compound 1 µM, first compound 1 µM
[23] = second compound 1 µM, first compound 3.16 µM
[24] = second compound 1 µM, first compound 10 µM
[25] = second compound 3.16 µM, first compound 0.0316 µM
[26] = second compound 3.16 µM, first compound 0.1 µM
[27] = second compound 3.16 µM, first compound 0.316 µM
[28] = second compound 3.16 µM, first compound 1 µM
[29] = second compound 3.16 µM, first compound 3.16 µM
[30] = second compound 3.16 µM, first compound 10 µM
[31] = second compound 10 µM, first compound 0.0316 µM
[32] = second compound 10 µM, first compound 0.1 µM
[33] = second compound 10 µM, first compound 0.316 µM
[34] = second compound 10 µM, first compound 1 µM
[35] = second compound 10 µM, first compound 3.16 µM
[36] = second compound 10 µM, first compound 10 µM
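Also: spheroids exposed to compounds for seven days.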

Question: Which IC50 (second compound 0.0316 µM) does the source give for CC(=O)O[C@H]1C(=O)[C@@]2(C)[C@H]([C@H](OC(=O)c3ccccc3)[C@]3(O)C[C@H](OC(=O)[C@H](O)[C@@H](NC(=O)c4ccccc4)c4ccccc4)C(C)=C1C3(C)C)[C@]1(OC(C)=O)CO[C@@H]1C[C@@H]2O + CN(C)c1ccc(Nc2c3ccc(NC(=O)CCN4CCCC4)cc3nc3cc(NC(=O)CCN4CCCC4)ccc23)cc1 here?
Answer: < 0.0316 µM

Question: And the IC50 (second compound 0.1 µM)?
Answer: < 0.0316 µM

Question: And the IC50 (second compound 0.316 µM)?
Answer: < 0.0316 µM

Question: And the IC50 (second compound 1 µM)?
Answer: < 0.0316 µM

Question: And the IC50 (second compound 3.16 µM)?
Answer: < 0.0316 µM

Question: And the IC50 (second compound 10 µM)?
Answer: < 0.0316 µM

Question: What about the viability, T/C [1] of the same compound?
Answer: 16.5%

Question: What about the viability, T/C [2] of the same compound?
Answer: 8.43%

Question: What about the viability, T/C [3] of the same compound?
Answer: 9.5%

Question: And the viability, T/C [4]?
Answer: 7.36%

Question: What about the viability, T/C [5] of the same compound?
Answer: 8.24%

Question: What about the viability, T/C [6] of the same compound?
Answer: 10.1%

Question: What about the viability, T/C [7] of the same compound?
Answer: 16%

Question: What about the viability, T/C [8] of the same compound?
Answer: 11.7%

Question: And the viability, T/C [9]?
Answer: 7.58%

Question: And the viability, T/C [10]?
Answer: 6.11%

Question: And the viability, T/C [11]?
Answer: 8.15%

Question: And the viability, T/C [12]?
Answer: 7.98%

Question: And the viability, T/C [13]?
Answer: 14%

Question: And the viability, T/C [14]?
Answer: 10%

Question: What about the viability, T/C [15] of the same compound?
Answer: 8.64%

Question: And the viability, T/C [16]?
Answer: 7.04%

Question: What about the viability, T/C [17] of the same compound?
Answer: 8.84%

Question: What about the viability, T/C [18] of the same compound?
Answer: 10.1%

Question: What about the viability, T/C [19] of the same compound?
Answer: 16%

Question: What about the viability, T/C [20] of the same compound?
Answer: 8.67%

Question: What about the viability, T/C [21] of the same compound?
Answer: 6.76%

Question: What about the viability, T/C [22] of the same compound?
Answer: 7.25%

Question: What about the viability, T/C [23] of the same compound?
Answer: 6.69%

Question: And the viability, T/C [24]?
Answer: 9.71%

Question: And the viability, T/C [25]?
Answer: 15.5%

Question: What about the viability, T/C [26] of the same compound?
Answer: 9.08%

Question: And the viability, T/C [27]?
Answer: 8.56%

Question: What about the viability, T/C [28] of the same compound?
Answer: 6.91%

Question: And the viability, T/C [29]?
Answer: 6.53%

Question: And the viability, T/C [30]?
Answer: 8.28%

Question: And the viability, T/C [31]?
Answer: 21.6%

Question: And the viability, T/C [32]?
Answer: 12.1%

Question: What about the viability, T/C [33] of the same compound?
Answer: 8.85%

Question: And the viability, T/C [34]?
Answer: 7.09%

Question: And the viability, T/C [35]?
Answer: 8.15%

Question: What about the viability, T/C [36] of the same compound?
Answer: 8.56%

Question: Which results are given for CC1COCCN1c1cc(C2(S(C)(=N)=O)CC2)nc(-c2ccnc3[nH]ccc23)n1 (centres undefined) + CN(C)c1ccc(Nc2c3ccc(NC(=O)CCN4CCCC4)cc3nc3cc(NC(=O)CCN4CCCC4)ccc23)cc1?
Answer: IC50 (second compound 0.0316 µM): 5.38 µM; IC50 (second compound 0.1 µM): 5.35 µM; IC50 (second compound 0.316 µM): 5.98 µM; IC50 (second compound 1 µM): 5.14 µM; IC50 (second compound 3.16 µM): 6.07 µM; IC50 (second compound 10 µM): 5.84 µM; viability, T/C [1]: 110%; viability, T/C [2]: 105%; viability, T/C [3]: 105%; viability, T/C [4]: 102%; viability, T/C [5]: 64.1%; viability, T/C [6]: 33.5%; viability, T/C [7]: 109%; viability, T/C [8]: 99.4%; viability, T/C [9]: 115%; viability, T/C [10]: 108%; viability, T/C [11]: 62.9%; viability, T/C [12]: 34.5%; viability, T/C [13]: 104%; viability, T/C [14]: 103%; viability, T/C [15]: 99.8%; viability, T/C [16]: 100%; viability, T/C [17]: 71.1%; viability, T/C [18]: 33%; viability, T/C [19]: 94.4%; viability, T/C [20]: 95.1%; viability, T/C [21]: 110%; viability, T/C [22]: 77.2%; viability, T/C [23]: 63.9%; viability, T/C [24]: 34.3%; viability, T/C [25]: 89%; viability, T/C [26]: 90.8%; viability, T/C [27]: 90.1%; viability, T/C [28]: 82.8%; viability, T/C [29]: 66.2%; viability, T/C [30]: 37.7%; viability, T/C [31]: 80.5%; viability, T/C [32]: 82.1%; viability, T/C [33]: 83.7%; viability, T/C [34]: 78.4%; viability, T/C [35]: 59.8%; viability, T/C [36]: 41.5%
